The source of these data is patent US20240239781A1, “1H-PYRAZOLE DERIVATIVES AS SIGMA LIGANDS” (ACONDICIONAMIENTO TARRASENSE, priority 2021, published 2024).

The target in one test is T1, human σ1 receptor (Homo sapiens, UniProt Q99720).
T1 construct: expressed in transfected cells; host or cells: HEK-293
The test can be described thus: Human σ1 receptor radioligand assay ([3H](+)-pentazocine, transfected HEK-293 membranes). The note with it: class scale, read-out: Binding σ-1 Ki. In outline:
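Membranes (7 μg) from transfected HEK-293 cells were incubated with 5 nM [3H](+)-pentazocine in 50 mM Tris-HCl, pH 8, for 120 minutes at 37° C, with 10 μM haloperidol defining non-specific binding. Bound radioactivity was filtered and counted by scintillation. Results are % inhibition at 1 or 10 μM or Ki from five concentrations.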

A further test concerns the target T2, human σ2/TMEM97 receptor (Homo sapiens, UniProt Q5BJF2).
T2 construct: expressed in transfected cells; host or cells: HEK-293
The test can be described thus: Binding assay to human σ2/TMEM97 receptor ([3H]-DTG, transfected HEK-293 membranes). The note with it: class scale, read-out: Binding σ-2 Ki. In outline:
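Membranes (15 μg) from transfected HEK-293 incubated 120 min at 25 °C with 10 nM [3H]-DTG in 50 mM Tris-HCl pH 8.0; nonspecific binding with 10 μM haloperidol. Filtration and scintillation counting; % inhibition at 1 or 10 μM, or Ki from five concentrations.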

T1 sequence (Q99720 whole entry): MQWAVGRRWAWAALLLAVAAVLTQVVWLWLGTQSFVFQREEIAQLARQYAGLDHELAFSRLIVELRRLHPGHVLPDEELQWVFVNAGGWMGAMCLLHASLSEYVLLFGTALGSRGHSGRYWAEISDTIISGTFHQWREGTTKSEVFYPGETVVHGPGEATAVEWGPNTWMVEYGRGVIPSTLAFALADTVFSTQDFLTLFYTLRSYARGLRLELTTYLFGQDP
T2 sequence (Q5BJF2 whole entry): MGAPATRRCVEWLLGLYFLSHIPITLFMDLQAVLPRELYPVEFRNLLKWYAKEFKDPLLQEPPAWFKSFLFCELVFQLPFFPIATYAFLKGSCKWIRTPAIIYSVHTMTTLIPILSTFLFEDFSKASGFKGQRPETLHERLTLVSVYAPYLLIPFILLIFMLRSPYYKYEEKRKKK

As for `CCn1nc(-c2cc(C)on2)c(C(=O)N2CCCC3(CN(CCC(C)(C)C)C3)C2)c1Cl` [Example 194, (5-Chloro-1-ethyl-3-(5-methylisoxazol-3-yl)-1H-pyrazol-4-yl)(2-(3,3-dimethylbutyl)-2,6-diazaspiro[3.5]nonan-6-yl)methanone], the inhibition constant (Ki) at human σ1 receptor is 500 to 1000 nM; at human σ2/TMEM97 receptor, below 100 nM.
The corresponding values for `CCn1nc(-c2ccon2)c(C(=O)N2CCCC3(CN(CCC(C)(C)C)C3)C2)c1Cl` [Example 195, (5-Chloro-1-ethyl-3-(isoxazol-3-yl)-1H-pyrazol-4-yl)(2-(3,3-dimethylbutyl)-2,6-diazaspiro[3.5]nonan-6-yl)methanone] are 500 to 1000 nM and below 100 nM.
The corresponding values for `CCn1cc(-c2nn(C)c(Cl)c2C(=O)N2CCC3(CCN(CCC(C)(C)C)CC3)CC2)cn1` [Example 196, (5-Chloro-1′-ethyl-1-methyl-1H,1′H-[3,4′-bipyrazol]-4-yl)(9-(3,3-dimethylbutyl)-3,9-diazaspiro[5.5]undecan-3-yl)methanone] are 500 to 1000 nM and below 100 nM.
The corresponding values for `CCn1nc(-c2ccon2)c(C(=O)NC2CCC3(CC2)CN(CCC(C)(C)C)C3)c1Cl` [Example 197, 5-Chloro-N-(2-(3,3-dimethylbutyl)-2-azaspiro[3.5]nonan-7-yl)-1-ethyl-3-(isoxazol-3-yl)-1H-pyrazole-4-carboxamide] are 100 to 500 nM and below 100 nM.
Consider `CCn1nc(-c2cnn(C(C)C)c2)c(C(=O)N2CCC3(CCN(CCC(C)(C)C)CC3)CC2)c1Cl` [Example 198, (5-Chloro-1-ethyl-1′-isopropyl-1H,1′H-[3,4′-bipyrazol]-4-yl)(9-(3,3-dimethylbutyl)-3,9-diazaspiro[5.5]undecan-3-yl)methanone], for which the Ki is 500 to 1000 nM on human σ1 receptor and below 100 nM on human σ2/TMEM97 receptor.
The corresponding values for `CCn1nc(-c2cccc(C(F)(F)F)n2)c(C(=O)N2CCC3(CCN(CCC(C)(C)C)CC3)CC2)c1Cl` [Example 199, (5-Chloro-1-ethyl-3-(6-(trifluoromethyl)pyridin-2-yl)-1H-pyrazol-4-yl)(9-(3,3-dimethylbutyl)-3,9-diazaspiro[5.5]undecan-3-yl)methanone] are 100 to 500 nM and below 100 nM.
The corresponding values for `CCn1nc(-c2cc(C)on2)c(C(=O)N[C@H]2CC[C@H](NCCC(C)(C)C)CC2)c1Cl` [Example 200, 5-Chloro-N-((1r,4r)-4-((3,3-dimethylbutyl)amino)cyclohexyl)-1-ethyl-3-(5-methylisoxazol-3-yl)-1H-pyrazole-4-carboxamide] are 500 to 1000 nM and below 100 nM.
The corresponding values for `CCn1nc(-c2cc(C)on2)c(C(=O)N[C@H]2CC[C@@H](NCCC(C)(C)C)CC2)c1Cl` [Example 201, 5-Chloro-N-((1s,4s)-4-((3,3-dimethylbutyl)amino)cyclohexyl)-1-ethyl-3-(5-methylisoxazol-3-yl)-1H-pyrazole-4-carboxamide] are 100 to 500 nM and 100 to 500 nM.
As for `CCn1nc(-c2cc(C)on2)c(C(=O)NC2CCCN(CCC(C)(C)C)C2)c1Cl` (stereo not shown) [Example 202, 5-Chloro-N-(1-(3,3-dimethylbutyl)piperidin-3-yl)-1-ethyl-3-(5-methylisoxazol-3-yl)-1H-pyrazole-4-carboxamide], the Ki at human σ1 receptor and at human σ2/TMEM97 receptor was 100 to 500 nM each time.
Turning to `CCn1nc(-c2cc(C)on2)c(C(=O)NCC2CCN(CCC(C)(C)C)CC2)c1Cl` [Example 203, 5-Chloro-N-((1-(3,3-dimethylbutyl)piperidin-4-yl)methyl)-1-ethyl-3-(5-methylisoxazol-3-yl)-1H-pyrazole-4-carboxamide], the Ki is 100 to 500 nM at human σ1 receptor and below 100 nM at human σ2/TMEM97 receptor.
The corresponding values for `CCn1nc(-c2cc(C)on2)c(C(=O)Nc2ccc3c(c2)CCN(CCC(C)(C)C)C3)c1Cl` [Example 204, 5-Chloro-N-(2-(3,3-dimethylbutyl)-1,2,3,4-tetrahydroisoquinolin-6-yl)-1-ethyl-3-(5-methylisoxazol-3-yl)-1H-pyrazole-4-carboxamide] are below 100 nM and below 100 nM.
The corresponding values for `CCn1nc(-c2cc(C)on2)c(C(=O)NCC2CCCN(CCC(C)(C)C)C2)c1Cl` (stereo not shown) [Example 205, 5-Chloro-N-((1-(3,3-dimethylbutyl)piperidin-3-yl)methyl)-1-ethyl-3-(5-methylisoxazol-3-yl)-1H-pyrazole-4-carboxamide] are below 100 nM and below 100 nM.
The corresponding values for `CCn1nc(-c2cc(C)on2)c(C(=O)NC2CCCCN(CCC(C)(C)C)C2)c1Cl` (stereo not shown) [Example 206, 5-Chloro-N-(1-(3,3-dimethylbutyl)azepan-3-yl)-1-ethyl-3-(5-methylisoxazol-3-yl)-1H-pyrazole-4-carboxamide] are 500 to 1000 nM and 500 to 1000 nM.
Turning to `CCn1nc(-c2ccnc(C)c2)c(C(=O)N2CCC3(CCN(CCC(C)(C)C)CC3)CC2)c1Cl` [Example 207, (5-Chloro-1-ethyl-3-(2-methylpyridin-4-yl)-1H-pyrazol-4-yl)(9-(3,3-dimethylbutyl)-3,9-diazaspiro[5.5]undecan-3-yl)methanone], the inhibition constant Ki is 100 to 500 nM on human σ1 receptor and below 100 nM on human σ2/TMEM97 receptor.
The corresponding values for `Cc1cc(-c2nn(C)c(Cl)c2CC(=O)N2CCC3(CCN(CCC(C)(C)C)CC3)CC2)no1` [Example 208, 2-(5-Chloro-1-methyl-3-(5-methylisoxazol-3-yl)-1H-pyrazol-4-yl)-1-(9-(3,3-dimethylbutyl)-3,9-diazaspiro[5.5]undecan-3-yl)ethan-1-one] are 500 to 1000 nM and below 100 nM.
For `CCn1nc(-c2ccon2)c(CC(=O)N2CCC3(CCN(CCC(C)(C)C)CC3)CC2)c1Cl` [Example 209, 2-(5-Chloro-1-ethyl-3-(isoxazol-3-yl)-1H-pyrazol-4-yl)-1-(9-(3,3-dimethylbutyl)-3,9-diazaspiro[5.5]undecan-3-yl)ethan-1-one], the inhibition constant (Ki) on human σ1 receptor and on human σ2/TMEM97 receptor was below 100 nM in each case.
Take `CCn1nc(-c2cc(C)on2)c(CC(=O)N2CCC3(CCN(CCC(C)(C)C)CC3)CC2)c1Cl` [Example 210, 2-(5-Chloro-1-ethyl-3-(5-methylisoxazol-3-yl)-1H-pyrazol-4-yl)-1-(9-(3,3-dimethylbutyl)-3,9-diazaspiro[5.5]undecan-3-yl)ethan-1-one]: the inhibition constant (Ki) is 500 to 1000 nM on human σ1 receptor and below 100 nM on human σ2/TMEM97 receptor.
The corresponding values for `CCn1nc(-c2ccon2)c(CC(=O)Nc2ccc3c(c2)CCN(CCC(C)(C)C)C3)c1Cl` [Example 211, 2-(5-Chloro-1-ethyl-3-(isoxazol-3-yl)-1H-pyrazol-4-yl)-N-(2-(3,3-dimethylbutyl)-1,2,3,4-tetrahydroisoquinolin-6-yl)acetamide] are below 100 nM and below 100 nM.
With `CCn1nc(-c2ccon2)c(CC(=O)NCC2CCCN(CCC(C)(C)C)C2)c1Cl` (stereo not shown) [Example 212, 2-(5-Chloro-1-ethyl-3-(isoxazol-3-yl)-1H-pyrazol-4-yl)-N-((1-(3,3-dimethylbutyl)piperidin-3-yl)methyl)acetamide], the inhibitory constant (Ki) is below 100 nM on human σ1 receptor and 100 to 500 nM on human σ2/TMEM97 receptor.
The corresponding values for `Cn1nc(-c2cccc(C(F)(F)F)n2)c(CC(=O)N2CCC3(CCN(CCC(C)(C)C)CC3)CC2)c1Cl` [Example 213, 2-(5-Chloro-1-methyl-3-(6-(trifluoromethyl)pyridin-2-yl)-1H-pyrazol-4-yl)-1-(9-(3,3-dimethylbutyl)-3,9-diazaspiro[5.5]undecan-3-yl)ethan-1-one] are 100 to 500 nM and below 100 nM.

As usually defined, the Ki is a dissociation constant, usually derived from enzyme kinetics or from competition with a known ligand.
